Results taken from patent US20100247931A1, “TREATING SURFACES TO ENHANCE BIO-COMPATIBILITY” (priority 2001, published 2010).
Several values for one entry are separate records, joined by “and”; a condition that tells them apart may be missing. Equal values may be shown once. Where a name gives a salt, the structure may show the parent alone.

Key:
Format in all cases: physicochemical
[1] = Colchicine release from polymer coating into phosphate buffered saline (UV/Vis absorbance at 350 nm)
From the text: The stent was placed in a tube containing 4 mls of Phosphate Buffered Saline solution (prepared from tablets supplied by Sigma-Aldrich Chemical Co by dissolving 1 tablet in 200 mls of deionised water) and agitated by rolling. The saline solution was sampled at intervals and its colchicine content determined by monitoring its absorbance at 350 nm using UV/Vis Spectrometry. A calibration plot for various concentrations of Colchicine (4 to 99 micrograms) in solution against the solution's absorbance at 350 nm was constructed to convert sample's release absorbance into drug release values in micrograms per stent. The graph of Colchicine released against release time is plotted in FIG. 3.
1. Stainless steel strips approx 6-8 mm in width were cleaned in IPA with ultrasound for 15 mins, followed by drying at 130° C. for 30 mins 2. The plate was functionalised as in Example 2. 3. The amino group on the functionalised steel was then reacted with the ispcyano group of 3-(triethoxysilyl)isocyanate to form a urea linkage, yielding triethoxysilyl groups on the surface. This was performed by adding the stainless steel plate to a solution of 3-(triethoxysilyl) isocyanate (9 ml) in anhydrous toluene (219 ml). […] The colchicine was released by placing the strips in 4 mls of phosphate buffered saline (PBS) solution, placing on a spiromix and measuring the absorbance at 350 nm over a period of 100 hours 15. […]

[2] = Eosin Y coupling to amine groups of TMSPEA functionalised surface and release (absorbance at 517 nm)
Experimental: Once rinsing had been completed, the sample was placed in a 50 ml sample tube and 4 mls of 0.1 M NaOH was pipetted into it, the sample tube was placed on the Spiramix and it was rolled for—5 minutes. 20 mls of deionised water was then pipetted into the solution and the absorbance of the resulting solution was recorded at 517 nm using a spectrophotometer. The absorbance value was then converted into an amount of eosin Y attached to the sample by using a calibration graph of absorbance readings for known amounts of eosin Y sodium salt. The absorbance reading for the release solution was 0.83 at 517 nm corresponding to 205 μg of eosinY.
All six samples were placed in sample tubes (100*16 mm R. B. tubes clarified polypropylene, Jencons PLC) and rolled on the Spiramix (Denley Spiramix 5) in approximately 4-6 mls of a 0.4% aqueous solution of eosin Y sodium salt (Sigma Aldrich chemical co) for approximately 1 hour.
Once rinsing had been completed, two samples from the ethanol rinsed and unrinse, d sets were placed in 50 ml sample tubes and 4 mls of 0.1 M NaOH was pipetted into each. The sample tubes were placed on the Spiramix and rolled for—5 minutes. 20 mls of deionised water was then pipetted into each sample and the absorbance of the resulting solution was recorded at 517 nm using a Jenway 6305 W/V is spectrophotometer. The values recorded were then converted into amounts of eosin Y attached to the samples by using a calibration graph of absorbance readings for known amounts of eosin Y sodium salt.
After drying for 2 hours at 50° C. the sample was stained with Eosin Y solution, visually examined and then released as detailed in the Eosin Y Coupling section of Example 6.

[3] = Mitoxantrone coupling and release from coated device (absorbance of release solution at 660 nm)
Experimental: A 0.01% solution of mitoxantrone (Sigma Aldrich Chemical Co) was made up in deionised water. The samples are each immersed in 4 mls of the solution and left rolling on a Spiramix (Denley Spiramix 5) for—17 hours (Samples placed in 100*16 mm R. B. tube clarified polypropylene supplied by Jencons PLC.). After this time they were rinsed in deionised water until there was no evidence of the mitoxantrone being removed in the water. 4 mls of phosphate buffered saline solution (PBS) was then pipetted into a clean sample tube and the sample added. The samples were left in this solution for 1 hour on the Spiramix, after which absorbances were recorded by spectrophotometer at 660 nm. The solutions were then transferred back into the appropriate sample tube and 5 drops of 1M hydrochloric acid added from a dropping pipette. The samples were left for 10 minutes rolling on the Spiramix, after which an absorbance reading was recorded. Further readings were obtained after 1 hour or more to give a value for complete release of mitoxantrone. The absorbances recorded for the release solutions at 660 nm gave an indication of the amount of mitoxantrone attached to the carboxymethylcellulose coating on each sample. By use of a calibration curve plotting known concentrations of mitoxantrone solutions against the absorbance of the solution at 660 nm, the mitoxantrone concentration of the release solution was determined and from this the amount of mitoxantrone attached to each device. An absorbance of 0.09 at 660 nm was obtained for the 1 hour release in phosphate buffered saline solution, and an absorbance of 0.17 for the complete release of Mitoxantrone. This equates to approximately 31 micrograms of mitoxantrone attached to the stent.

[4] = as above; remark: listed apart in the source
[5] = Example 2: stent coupled with poly(acrylic acid) partial sodium salt, Mw 2000
[6] = Example 9: heat exchange tubes coupled with polyacrylic acid sodium salt, Mw ca. 30,000

COc1cc2c(c(OC)c1OC)-c1ccc(OC)c(=O)cc1[C@@H](NC(C)=O)CC2 [colchicine]
Release of drug into phosphate buffered saline solution ([1]; Coating of poly(vinyl butyral-co-vinyl alcohol-co-vinyl acetate) and colchicine without poly(ethylene glycol)): does not release the drug into phosphate buffered saline solution
Total amount of drug released after sonication in 2-propanol ([1]; Example 14: strip coated with poly(vinyl butyral-co-vinyl alcohol-co-vinyl acetate) + poly(ethylene glycol) + colchicine, after 100 hours in PBS): 320 u. g

O=C1OC2(c3ccccc31)c1cc(Br)c(O)c(Br)c1Oc1c2cc(Br)c(O)c1Br [eosin Y, eosin Y sodium salt]
Eosin Y attached to the sample ([2]; Example 6: TMSPEA functionalised tube (toluene, 30 minutes), calibration graph): 205 µg
Absorbance of release solution at 517 nm ([2]; Example 6: TMSPEA functionalised tube (toluene, 30 minutes), released in 0.1 M NaOH): 0.83
Absorbance of release solution at 517 nm ([2]; Example 15: tube functionalised with TMSPEA in tetrahydrofuran instead of toluene): 0.19

O=C1c2c(O)ccc(O)c2C(=O)c2c(NCCNCCO)ccc(NCCNCCO)c21 [mitoxantrone]
Absorbance at 660 nm, complete release of mitoxantrone ([3]; Example 1: CMC coupled stent, PBS + 1M HCl): 0.17
Mitoxantrone attached to the stent ([3]; Example 1: CMC coupled stent, from calibration curve): approximately 31 micrograms
Absorbance at 660 nm, 1 hour release in phosphate buffered saline solution ([3]; Example 1: stainless steel stent, TMSPEA functionalised, carboxymethylcellulose coupled): 0.09
Absorbance at 660 nm, released 10 minutes in PBS with 5 drops 1 M HCl [4, 5]: 0.037
Mitoxantrone attached to the stent [4, 5]: 7 micrograms
Mitoxantrone attached to the heparin coated devices (complete release values) ([4]; Example 3: heparin coupled stainless steel heat exchange tubes): 31 micrograms and 36 micrograms
Mitoxantrone attachment of released stent ([4]; Example 7: commercially available stent, heparin/EDC Reaction Solution 1 of Example 6): 9 micrograms
Absorbance at 660 nm, complete release of mitoxantrone [4, 6]: 0.33
Mitoxantrone corresponding to complete release absorbance [4, 6]: 60 micrograms
